Target: T1, Peroxisome proliferator-activated receptor gamma (Homo sapiens, UniProt P37231)
T1 sequence (P37231 whole entry): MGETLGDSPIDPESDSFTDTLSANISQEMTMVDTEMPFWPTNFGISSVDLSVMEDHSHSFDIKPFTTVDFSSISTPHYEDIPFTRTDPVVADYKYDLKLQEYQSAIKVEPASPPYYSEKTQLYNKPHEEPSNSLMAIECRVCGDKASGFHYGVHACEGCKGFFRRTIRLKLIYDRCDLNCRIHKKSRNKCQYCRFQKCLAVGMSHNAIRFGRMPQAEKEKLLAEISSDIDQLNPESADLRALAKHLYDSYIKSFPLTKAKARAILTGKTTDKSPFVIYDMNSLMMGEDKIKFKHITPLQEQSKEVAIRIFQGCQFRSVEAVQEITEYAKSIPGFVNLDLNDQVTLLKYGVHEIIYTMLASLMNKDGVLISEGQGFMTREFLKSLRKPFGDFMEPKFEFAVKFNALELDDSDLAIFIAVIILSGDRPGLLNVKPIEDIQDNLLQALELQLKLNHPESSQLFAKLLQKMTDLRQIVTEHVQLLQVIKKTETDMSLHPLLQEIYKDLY
Assay: Transactivation activity at PPARgamma (unknown origin)

C/C(=N\OCCOc1ccc(CC2SC(=O)NC2=O)cc1)c1ccc(-c2ccccc2)cc1 (stereo not given) and CCOC(=O)CN1C(=O)SC(Cc2ccc(OCCBr)cc2)C1=O (stereo not given) cannot be ordered by EC50: > 0.4 µM for the first, 12 µM for the second.

CCOC(=O)CN1C(=O)S/C(=C\c2ccc(C(F)(F)F)cc2)C1=O and CCOC(=O)CN1C(=O)S/C(=C\c2ccc(C)cc2)C1=O are within 1.5-fold of each other in EC50: 10 µM for the first, 9 µM for the second.

CCOC(=O)CN1C(=O)S/C(=C\c2cccc([N+](=O)[O-])c2)C1=O and CCOC(=O)CN1C(=O)S/C(=C\c2ccc(Cl)cc2)C1=O are within 1.5-fold of each other in EC50: 11 µM for the first, 8 µM for the second.

Compared with CCOC(=O)CN1C(=O)S/C(=C\c2ccc(OC)cc2)C1=O, CCOC(=O)CN1C(=O)S/C(=C\c2ccc(OCCBr)cc2)C1=O is 1.6-fold higher in EC50: 7 µM for the first, 11 µM for the second.

CCOC(=O)CN1C(=O)SC(Cc2ccc(F)cc2)C1=O (stereo not given) and CCOC(=O)CN1C(=O)SC(Cc2ccc(N)cc2)C1=O (stereo not given) are within 1.5-fold of each other in EC50: 10 µM for the first, 8 µM for the second.

CCOC(=O)CN1C(=O)SC(Cc2ccc(C(F)(F)F)cc2)C1=O (stereo not given) and COC(=O)CN1C(=O)SC(Cc2ccc(O)cc2)C1=O (stereo not given) are the same in EC50: 9 µM for the first, 9 µM for the second.

COC(=O)CN1C(=O)S/C(=C\c2ccc(O)cc2)C1=O gave an EC50 of 10 µM.

Target: T1, Peroxisome proliferator-activated receptor gamma
Assay: Transactivation activity at Homo sapiens (human) PPARgamma

CCCc1cc(Oc2ccccc2)ccc1OCCCCOc1ccc(C2SC(=O)NC2=O)cc1 (stereo not given) and O=C1NC(=O)C(Cc2ccc3c(c2)CC[C@H](Cc2ccccc2)O3)S1 (stereo not given in full) [ENGLITAZONE] are the same in EC50: 1 µM for the first, 1 µM for the second.
